Ki and melting point data for eight compounds are collected here from patent US6509341B1, “Carboxylic acid derivatives, carrying amido side-chains; production and use as endothelin receptor antagonists” (Abbott Laboratories, priority 1997, dated 2003).

The target in one data set is T1, human ETA receptor (Homo sapiens, UniProt P25101).
T1 construct: expressed in transfected cells; host or cells: CHO cells (membrane preparation)
T1 sequence (P25101 21-427): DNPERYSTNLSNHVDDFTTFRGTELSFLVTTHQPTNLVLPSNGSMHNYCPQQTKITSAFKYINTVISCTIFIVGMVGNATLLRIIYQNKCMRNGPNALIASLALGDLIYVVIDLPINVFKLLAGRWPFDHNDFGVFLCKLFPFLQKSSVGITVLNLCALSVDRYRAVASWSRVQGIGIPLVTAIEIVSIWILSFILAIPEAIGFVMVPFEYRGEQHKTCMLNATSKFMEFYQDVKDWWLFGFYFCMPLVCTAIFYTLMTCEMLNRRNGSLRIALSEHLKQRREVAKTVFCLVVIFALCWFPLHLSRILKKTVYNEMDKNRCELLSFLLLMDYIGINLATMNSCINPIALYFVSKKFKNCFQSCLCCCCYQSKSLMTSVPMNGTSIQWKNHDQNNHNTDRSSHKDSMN
As to the kind of experiment: ETA receptor binding assay ([125I]-ET1, CHO cell membranes). The note with it: cloned human ETA receptor, 25 pM [125I]-ET1, 25° C. As to the method: (§1) Cloned human ETA or ETB receptor-expressing CHO cells were employed for binding studies.
(§2) The ETA or ETB receptor-expressing CHO cells were grown in DmeM NUT MIX F12-medium (Gibco, No. 21331-020) with 10% fetal calf serum (PAA Laboratories GmbH, Linz, No. A15-022), 1 mM glutamine (Gibco No. 25030-024), 100 U/ml penicillin and 100 μg/ml streptomycin (Gibco [sic], Sigma No. P-0781). After 48 hours, the cells were washed with PBS and incubated with 0.05% trypsin-containing PBS at 37° C. for 5 minutes. This was followed by neutralization with medium, and the cells were collected by centrifugation at 300×g.
(§3) For the membrane preparation, the cells were adjusted to a concentration of 10^8 cells/ml of buffer (50 mM tris.HCL [sic] buffer, pH 7.4) and then disintegrated by ultrasound Branson Sonifier 250, 40-70 seconds/constant/output [sic] 20).
(§4) For the ETA and ETB receptor binding assay, the membranes were suspended in incubation buffer (50 mM tris-HCl, pH 7.4 with 5 mM MnCl2, 40 mg/ml Bacitracin and 0.2% BSA) in a concentration of 50 μg of protein per assay mixture and incubated with 25 pM [125I]-ET1 [sic] (ETA receptor assay) or 25 pM [125I]-ET3 [sic] (ETB receptor assay) at 25° C. in the presence and absence of test substance. The nonspecific binding was determined with 10^−7 M ET1. After 30 min, filtration through GF/B glass fiber filters (Whatman, England) in a Skatron cell harvester (Skatron, Lier, Norway) was carried out to separate free and bound radioligand, and the filters was washed with ice-cold tris-HCl buffer, pH 7.4 with 0.2% BSA. The radioactivity collected on the filters was quantified using a Packard 2200 CA liquid scintillation counter.
(§5) Receptor binding data were measured by the binding assay described above for the compounds listed below.

For a further data set, the target named is T2, human ETB receptor (Homo sapiens, UniProt P24530).
T2 construct: expressed in transfected cells; host or cells: CHO cells (membrane preparation)
T2 sequence (P24530 27-442): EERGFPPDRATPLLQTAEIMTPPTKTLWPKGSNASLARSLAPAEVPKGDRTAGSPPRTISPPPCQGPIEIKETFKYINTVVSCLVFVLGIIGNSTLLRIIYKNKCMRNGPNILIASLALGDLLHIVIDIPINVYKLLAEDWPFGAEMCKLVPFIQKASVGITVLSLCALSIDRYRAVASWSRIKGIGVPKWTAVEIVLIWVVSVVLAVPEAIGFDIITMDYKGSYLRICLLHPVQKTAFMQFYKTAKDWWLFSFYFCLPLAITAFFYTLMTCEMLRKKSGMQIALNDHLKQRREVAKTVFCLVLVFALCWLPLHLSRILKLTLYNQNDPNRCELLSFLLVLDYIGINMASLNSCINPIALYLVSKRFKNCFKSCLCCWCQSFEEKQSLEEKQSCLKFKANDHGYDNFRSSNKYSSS
In words: ETB receptor binding assay ([125I]-ET3, CHO cell membranes). The note with it: cloned human ETB receptor, 25 pM [125I]-ET3, 25° C. As to the method:
as §1, §2, §3, §4, §5

On to `COc1cc(C)nc(OC(C(=O)O)C(OCC(=O)N(C)c2ccccc2)(c2ccccc2)c2ccccc2)n1` (centres unmarked) [Compound I-111, 2-(4-methyl-6-methoxy-2-pyrimidinyloxy)-3-(N-methyl-N-phenylcarbamoylmethoxy)-3,3-diphenylpropionic acid], for which the Ki (usually a dissociation constant, usually derived from enzyme kinetics or from competition with a known ligand) came to 0.3 nM on human ETA receptor and 109 nM on human ETB receptor. In the case of `Cc1cc(C)nc(OC(C(=O)O)C(OCC(=O)N(C)c2ccccc2)(c2ccccc2)c2ccccc2)n1` (centres unmarked) [Compound I-109, 2-(4,6-Dimethyl-2-pyrimidinyloxy)-3-(N-methyl-N-phenylcarbamoylmethoxy)-3,3-diphenylpropionic acid], the results for the Ki at human ETA receptor and at human ETB receptor were 0.4 nM and 142 nM, respectively. For `COc1cc(C)nc(OC(C(=O)O)C(OCC(=O)N2CCc3ccccc3C2)(c2ccccc2)c2ccccc2)n1` (centres unmarked) [Compound I-309, 2-(4-Methyl-6-methoxy-2-pyrimidinyloxy)-3-(2-oxo-2-(1,2,3,4-tetrahydroisoquinolin-2-yl)ethoxy)-3,3-diphenylpropionic acid], in that order: 1 nM and 12 nM. For `CCCCN(CCCC)C(=O)COC(c1ccccc1)(c1ccccc1)C(Oc1nc(C)cc(C)n1)C(=O)O` (centres unmarked) [Compound I-347, 2-(4,6-Dimethyl-2-pyrimidinyloxy)-3-(N,N-dibutylcarbamoylmethoxy)-3,3-diphenylpropionic acid] the same measures were 3.8 nM and 155 nM. Consider `COc1cc2c(cc1OC)CN(C(=O)COC(c1ccccc1)(c1ccccc1)C(Oc1nc(C)cc(C)n1)C(=O)O)CC2` (centres unmarked) [Example 34, 2-(4,6-Dimethylpyrimidin-2-yloxy)-3-(2-oxo-2-(6,7-dimethoxy-1,2,3,4-tetrahydroisoquinolin-2-yl)ethoxy)-3,3-diphenylpropionic acid], for which the melting point (as a rule, the temperature of the solid-liquid transition) was 145 to 148 °C.

As to `Cc1cc(C)nc(OC(C(=O)O)C(OCC(=O)N2CCc3ccccc3C2)(c2ccccc2)c2ccccc2)n1` (centres unmarked) [Compound I-307, 2-(4,6-Dimethyl-2-pyrimidinyloxy)-3-(2-oxo-2-(1,2,3,4-tetrahydroisoquinolin-2-yl)ethoxy)-3,3-diphenylpropionic acid], the Ki on human ETA receptor came out at 1.6 nM; on human ETB receptor it was 10 nM. `Cc1cc(C)nc(OC(C(=O)O)C(OCC(=O)N2Cc3ccccc3C(C)(C)C2)(c2ccccc2)c2ccccc2)n1` (centres unmarked) [Example 35, 2-(4,6-Dimethylpyrimidin-2-yloxy)-3-(2-oxo-2-(4,4-dimethyl-1,2,3,4-tetrahydroisoquinolin-2-yl)ethoxy)-3,3-diphenylpropionic acid] yielded a melting point of 185 to 187 °C. As for `CCCCN(CCCC)C(=O)COC(c1ccccc1)(c1ccccc1)C(Oc1nc(C)cc(OC)n1)C(=O)O` (centres unmarked) [Compound I-349, 2-(4-Methyl-6-methoxy-2-pyrimidinyloxy)-3-(N,N-dibutylcarbamoylmethoxy)-3,3-diphenylpropionic acid], the figures for the Ki at human ETA receptor and at human ETB receptor were 3 nM and 142 nM, respectively.
